From patent US4481141A, “Nondiffusible yellow metallized azo dye-releasing compounds” (Eastman Kodak Company, priority 1983, dated 1984)
Entries after “also recorded” stand apart in the source; their conditions may differ.

Tests used:
Format in all cases: physicochemical
[1] = Dye solution spectra of Ni-dye complexes (Table I); settings: 3:1 dioxane:water, pH 7, excess nickel ion
Text: (§1) The receiver was removed from the dye solution, washed in distilled water, placed in a pH 7.0 buffer solution and dried. Transmission spectra obtained on each sample of the mordanted dyes were normalized by computer to a density of 1.0. The characteristic wavelength of the dye, λ1/2 in nm, is the mean of the wavelength limits of the absorption envelope at half the maximum density. The HBW ("half band width") in nm is the range or distance between those limits. The dye solution spectrum in 3:1 dioxane:water at pH 7 in the presence of excess nickel ion is also given.

[2] = Transmission spectra of mordanted dyes on receiving element (Table I); settings: unmetallized dye; nickel sulfate layer/poly(4-vinylpyridine) mordant receiver; pH 7.0
Description: (§2) A receiving element was prepared comprising a poly(ethylene terephthalate) film support having thereon a nickel sulfate hexahydrate (0.58 g/m^2)/gelatin (1.08 g/m^2) metal complexing layer, and a poly(4-vinylpyridine)/gelatin mordant layer (each at 2.15 g/m^2), which forms metal complexes with the unmetallized dyes. […]
as §1

[3] = Light stability of mordanted dyes (HID fade, Table I); settings: unmetallized dye; nickel layer/poly(4-vinylpyridine) receiver; 10 days HID, 50,000 lux, 38° C., pH 7
Description: as §2
The above receiving elements at pH 7 were then subjected to 10 days irradiation by a high intensity daylight (HID), 6000 W Xenon arc lamp, the sample receiving 50,000 lux through a Wratten 2B (ultraviolet) filter at approximately 38° C. and low humidity. The percent fade represents the loss in density at λmax after irradiation.

[4] = Dye diffusion, solution test; settings: 0.0025M dye, pH 13.4
Text: (§3) The released dyes in Table I were also subjected to the conditions of two different dye diffusion tests. One, the "solution test" involved dissolving the dye in a viscous composition and transferring it through a receiving element which contains an opaque and reflecting layer in addition to the mordant layer. The other, a "gel pad test" involved imbibing the dye from solution into a thick gelatin layer, and then transferring it by direct lamination to the same receiving element which had been preswollen by soaking 5 minutes in a solution of 0.1 potassium hydroxide. The receiver for these tests had the following composition (coverages are parenthetically given in g/m^2):
(§4) A transparent poly(ethylene terephthalate) film support coated with
(§5) (1) a mordant layer of poly(styrene-co-N-vinylbenzyl-N-benzyl-N,N-dimethylammonium chloride-co-divinylbenzene) (2.28) and gelatin (2.28);
(§6) (2) an opaque and reflecting layer of carbon black (1.88) in gelatin (1.23) and titanium dioxide (16.1) in gelatin (2.63); and
(§7) (3) an overcoat layer of gelatin (4.3).
Approximately 0.075 mmol of the released dye was dissolved in 10 ml of 0.125N potassium hydroxide. After the dye was completely dissolved, 20 ml of a viscous composition was added; and the resulting solution, stirred for at least 20 minutes, was 0.0025M in dye at a pH of 13.4. The viscous composition was prepared from 46.2 g potassium hydroxide and 54 g carboxymethylcellulose dissolved in 1200 ml water. […] Measurement of the rate of dye diffusion was commenced at the point at which half of the laminate had passed through the rollers. The appearance of dye on the mordant was measured at λmax as diffuse reflection density vs. time. The reflection density was converted to transmission density by computer with the aid of a mathematical relation derived from a previous calibration. A plot of transmission density, which is proportional to concentration vs. time, was derived; and the value of t-1/2 of dye transfer, the time in seconds required to obtain one-half of the maximum transmission density, calculated.

[5] = Dye diffusion, gel pad test
Text: as §3, §4, §5, §6, §7
A donor element, containing a thick pad of deionized acid-processed gelatin (26 g/m^2) hardened with 2 percent bis(vinylsulfonylmethyl)ether, was imbibed with a solution of 0.1M in potassium hydroxide and 1.3×10^-3 M in dye. […]

[6] = Stability of dye:nickel complex under gel pad transfer conditions; settings: after gel pad diffusion test
Description: A donor element, containing a thick pad of deionized acid-processed gelatin (26 g/m^2) hardened with 2 percent bis(vinylsulfonylmethyl)ether, was imbibed with a solution of 0.1M in potassium hydroxide and 1.3×10^-3 M in dye. The pad was soaked to full penetration, surface wiped, and then laminated in direct contact to the above receiving element which had been presoaked for 5 minutes at 0.1M KOH. The t-1/2 of dye transfer was obtained as in the solution test. The diffusion times by the "gel pad test" are substantially longer than by the "solution test".
When the unmetallized dye ligand of Compound J of the '643 patent and the 1:1 complex thereof were subjected to the gel pad diffusion test as described in Example 1, the values obtained were 66 sec. and 146 sec., respectively.

[7] = Comparison with prior art: absorption in dioxane/water with and without nickel ions
Description: In U.S. Pat. No. 4,148,643, Compound J in column 32 is the nickel complex of the following dye compound: [drawing 20] The nickel-dye complex is listed as having a λmax of 462 nm and a half-band width of 76 nm when adsorbed to a cationic polymeric mordant on a film strip. A 1:1 dioxane/water mixture at a pH of 7.0 of this nickel-dye complex was prepared. It absorbed at 444 nm in the presence of excess nickel ions and 402 nm in the absence of nickel ions.
In Table I, Compound C has the following structure: [drawing 21] The compound has a quinoline nitrogen chelating group instead of a hydroxyl chelating group as in Compound J of the '643 patent. A 1:1 dioxane/water mixture at a pH of 7.0 of the above Compound C was prepared. It absorbed at 452 nm in the presence of excess nickel ions and at 387 nm in the absence of nickel ions.

Compound | Spectra of Ni-Dye Complexes, Dye Solution, HBW (half band width) [1] [nm] | Spectra of Ni-Dye Complexes, Dye Solution, λ1/2 [1] [nm] | Spectra of Ni-Dye Complexes, Mordant, HBW (half band width) [2] [nm] | Spectra of Ni-Dye Complexes, Mordant, λ1/2 [2] [nm] | % Fade (loss in density at λmax after irradiation) [3] [%] | Dye Diffusion t1/2, Soln. [4] [s] | Dye Diffusion t1/2, Gel Pad ([5]; gel pad test, 0.1M KOH, 1.3×10^-3 M dye) [s] | gel pad diffusion test value ([5]; gel pad diffusion test as in Example 1 (comparison with prior art)) [s] | absorption wavelength in the presence of excess nickel ions ([7]; 1:1 dioxane/water, pH 7.0, excess nickel ions) [nm] | absorption wavelength in the absence of nickel ions ([7]; 1:1 dioxane/water, pH 7.0, no nickel ions) [nm] | spectrum at reduced nickel ion concentration ([7]; nickel ion at one-half the molar concentration of the dye) | spectrum of the dye on the receiver after transfer [6] | nature/stability of dye:nickel complex from spectrum ([7]; 0.5 mol Ni^++, listed as Dye C)
N#CC(N=Nc1cccc2cccnc12)=C(O)c1ccccc1 [F] | 70 | 446 | 75 | 458 | 2.0 |  |  |  |  |  |  |  | 
CC(O)=C(C#N)N=Nc1ccc(S(N)(=O)=O)c2cccnc12 [B] | 67 | 445 | 70 | 456 | 1.5 | 27 |  |  |  |  |  |  | 
CC(O)=C(C#N)N=Nc1cccc2cccnc12 [A] | 68 | 431 |  |  |  |  |  |  |  |  |  |  | 
CC(O)=C(C#N)N=Nc1ccc(S(=O)(=O)Nc2cccc(S(N)(=O)=O)c2)c2cccnc12 [Compound C] | 70 | 448 | 74 | 457 | 1.0 | 37 |  |  | 452 | 387 | no change in the spectrum |  | stable 2:1 complex of dye to metal; also recorded: much more stable 2:1 dye:nickel complex than compound J of the '643 patent
CC(O)=C(C#N)N=Nc1ccc(S(=O)(=O)Nc2cccc(O)c2)c2cccnc12 [D] | 70 | 451 | 73 | 459 | 8.0 | 39 |  |  |  |  |  |  | 
N#CC(N=Nc1ccc(S(N)(=O)=O)c2cccnc12)=C(O)c1ccccc1 [G] | 70 | 460 | 75 | 470 | 1.0 | 27 |  |  |  |  |  |  | 
CC(C)(C)C(O)=C(C#N)N=Nc1ccc(S(=O)(=O)Nc2cccc(S(N)(=O)=O)c2)c2cccnc12 [H] | 70 | 450 | 79 | 455 | 3.6 | 40 |  |  |  |  |  |  | 
CC(C)(C)C(O)=C(C#N)N=Nc1ccc(S(N)(=O)=O)c2cccnc12 [E] | 72 | 445 | 69 | 456 | 2.0 | 29 |  |  |  |  |  |  | 

The next lines start with results.

Spectra of Ni-Dye Complexes, Dye Solution, HBW (half band width) [1] [nm] | Spectra of Ni-Dye Complexes, Dye Solution, λ1/2 [1] [nm] | Spectra of Ni-Dye Complexes, Mordant, HBW (half band width) [2] [nm] | Spectra of Ni-Dye Complexes, Mordant, λ1/2 [2] [nm] | % Fade (loss in density at λmax after irradiation) [3] [%] | Dye Diffusion t1/2, Soln. [4] [s] | Dye Diffusion t1/2, Gel Pad ([5]; gel pad test, 0.1M KOH, 1.3×10^-3 M dye) [s] | gel pad diffusion test value ([5]; gel pad diffusion test as in Example 1 (comparison with prior art)) [s] | absorption wavelength in the presence of excess nickel ions ([7]; 1:1 dioxane/water, pH 7.0, excess nickel ions) [nm] | absorption wavelength in the absence of nickel ions ([7]; 1:1 dioxane/water, pH 7.0, no nickel ions) [nm] | spectrum at reduced nickel ion concentration ([7]; nickel ion at one-half the molar concentration of the dye) | Compound | spectrum of the dye on the receiver after transfer [6] | nature/stability of dye:nickel complex from spectrum ([7]; 0.5 mol Ni^++, listed as Dye C)
102 | 444 | 116 | 447 | 3.0 |  |  |  |  |  |  | Cc1nn(-c2ccccc2)c(O)c1N=Nc1cccc2cccnc12 [N] |  | 
72 | 435 | 77 | 439 | 1.0 |  |  |  |  |  |  | O=c1c(N=Nc2cccc3cccnc23)c(O)n(-c2ccccc2)n1-c1ccccc1 [L] |  | 
72 | 450 | 77 | 459 | 1.0 |  |  |  |  |  |  | NS(=O)(=O)c1ccc(N=Nc2c(O)n(-c3ccccc3)n(-c3ccccc3)c2=O)c2ncccc12 [M] |  | 
68 | 451 | 77 | 455 | 7.2 | 34 | 127 |  |  |  |  | CC(O)=C(C#N)N=Nc1ccc(S(=O)(=O)Nc2cccc(C(=O)O)c2)c2cccnc12 [I] |  | 
 |  |  |  |  |  |  | 66 |  |  |  | CC(O)=C(C#N)N=Nc1cc(S(N)(=O)=O)ccc1O [reference compound] | showed the presence of the unmetallized dye only | 
98 | 429 | 85 | 452 | 0.0 |  |  |  |  |  |  | O=c1oc2ccccc2c(O)c1N=Nc1cccc2cccnc12 [O] |  | 
